Assays:
Assay type in all cases: protein-complex assay
Integrin alpha-V/beta-3 = Integrin alpha-V/beta-3 (Homo sapiens, UniProt P05106+P06756); test: In vitro inhibitory activity against alpha v beta 3 vitronectin protein interaction was measured by ELISA
Integrin alpha-V/beta-5 = Integrin alpha-V/beta-5 (Homo sapiens, UniProt P06756+P18084); test: In vitro inhibitory activity against alpha v beta 5 vitronectin protein interaction was measured by ELISA
[1] = molecular target: Integrin alpha-IIb/beta-3 (Homo sapiens, UniProt P05106+P08514); test: In vitro inhibitory activity against alpha IIb beta IIIa fibrinogen protein interaction was measured by ELISA
Integrin alpha-IIb/beta-3, sequence (P05106 27-788 limits assumed): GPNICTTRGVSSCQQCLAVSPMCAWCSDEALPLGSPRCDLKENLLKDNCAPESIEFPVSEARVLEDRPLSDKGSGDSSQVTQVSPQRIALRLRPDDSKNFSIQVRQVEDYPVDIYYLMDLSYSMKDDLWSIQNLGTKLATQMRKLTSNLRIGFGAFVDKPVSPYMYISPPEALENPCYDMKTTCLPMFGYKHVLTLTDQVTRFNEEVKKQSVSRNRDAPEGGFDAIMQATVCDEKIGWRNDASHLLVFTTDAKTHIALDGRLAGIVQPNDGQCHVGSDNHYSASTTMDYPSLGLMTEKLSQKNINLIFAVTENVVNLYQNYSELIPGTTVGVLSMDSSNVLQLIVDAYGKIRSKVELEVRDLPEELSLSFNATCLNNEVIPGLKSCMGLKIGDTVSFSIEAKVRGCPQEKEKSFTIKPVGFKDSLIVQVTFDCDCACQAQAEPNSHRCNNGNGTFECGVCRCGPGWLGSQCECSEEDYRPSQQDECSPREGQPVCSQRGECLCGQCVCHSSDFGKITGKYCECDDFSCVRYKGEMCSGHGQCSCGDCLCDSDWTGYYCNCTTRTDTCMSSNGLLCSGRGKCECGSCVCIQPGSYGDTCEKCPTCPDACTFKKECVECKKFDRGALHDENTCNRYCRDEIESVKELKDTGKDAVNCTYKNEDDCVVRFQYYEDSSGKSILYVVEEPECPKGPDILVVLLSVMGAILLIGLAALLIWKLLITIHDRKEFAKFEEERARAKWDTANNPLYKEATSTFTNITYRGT
Integrin alpha-IIb/beta-3, sequence (P08514 32-887 limits assumed): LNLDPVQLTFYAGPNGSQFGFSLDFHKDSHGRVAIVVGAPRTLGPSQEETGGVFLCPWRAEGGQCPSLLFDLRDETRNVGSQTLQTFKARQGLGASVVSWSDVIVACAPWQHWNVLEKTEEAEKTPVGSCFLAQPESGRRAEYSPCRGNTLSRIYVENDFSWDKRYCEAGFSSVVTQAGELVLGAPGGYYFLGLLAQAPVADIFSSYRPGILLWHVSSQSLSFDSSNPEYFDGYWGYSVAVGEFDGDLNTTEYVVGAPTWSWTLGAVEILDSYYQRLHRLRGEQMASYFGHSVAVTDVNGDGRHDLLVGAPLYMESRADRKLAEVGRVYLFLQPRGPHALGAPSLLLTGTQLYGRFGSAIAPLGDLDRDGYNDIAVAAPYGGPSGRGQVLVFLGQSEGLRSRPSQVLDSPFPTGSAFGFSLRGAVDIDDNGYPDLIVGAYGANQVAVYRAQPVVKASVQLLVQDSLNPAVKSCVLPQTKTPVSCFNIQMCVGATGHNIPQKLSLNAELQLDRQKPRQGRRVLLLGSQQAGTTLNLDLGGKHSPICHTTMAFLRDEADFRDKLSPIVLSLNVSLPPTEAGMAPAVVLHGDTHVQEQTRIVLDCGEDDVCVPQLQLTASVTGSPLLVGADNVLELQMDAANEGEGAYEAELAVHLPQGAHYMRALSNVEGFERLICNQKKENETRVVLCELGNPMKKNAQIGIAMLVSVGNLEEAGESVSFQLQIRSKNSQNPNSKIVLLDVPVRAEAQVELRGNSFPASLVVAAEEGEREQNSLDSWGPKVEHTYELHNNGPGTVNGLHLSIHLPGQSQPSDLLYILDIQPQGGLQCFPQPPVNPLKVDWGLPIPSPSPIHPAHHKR
Integrin alpha-IIb/beta-3, sequence (P08514 891-1039 limits assumed): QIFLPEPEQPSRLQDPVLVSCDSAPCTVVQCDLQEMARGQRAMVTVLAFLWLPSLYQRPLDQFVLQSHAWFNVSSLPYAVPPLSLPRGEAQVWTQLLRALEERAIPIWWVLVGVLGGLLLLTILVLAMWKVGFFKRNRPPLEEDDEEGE

Integrin alpha-5/beta-1 = Integrin alpha-5/beta-1 (Homo sapiens, UniProt P05556+P08648); test: In vitro inhibitory activity against alpha 5 beta 1 fibronectin protein interaction was measured by ELISA

Integrin alpha-V/beta-3, sequence (P05106 27-788 limits assumed): as the sequence (P05106 27-788 limits assumed) above
Integrin alpha-V/beta-3, sequence (P06756 31-889 limits assumed): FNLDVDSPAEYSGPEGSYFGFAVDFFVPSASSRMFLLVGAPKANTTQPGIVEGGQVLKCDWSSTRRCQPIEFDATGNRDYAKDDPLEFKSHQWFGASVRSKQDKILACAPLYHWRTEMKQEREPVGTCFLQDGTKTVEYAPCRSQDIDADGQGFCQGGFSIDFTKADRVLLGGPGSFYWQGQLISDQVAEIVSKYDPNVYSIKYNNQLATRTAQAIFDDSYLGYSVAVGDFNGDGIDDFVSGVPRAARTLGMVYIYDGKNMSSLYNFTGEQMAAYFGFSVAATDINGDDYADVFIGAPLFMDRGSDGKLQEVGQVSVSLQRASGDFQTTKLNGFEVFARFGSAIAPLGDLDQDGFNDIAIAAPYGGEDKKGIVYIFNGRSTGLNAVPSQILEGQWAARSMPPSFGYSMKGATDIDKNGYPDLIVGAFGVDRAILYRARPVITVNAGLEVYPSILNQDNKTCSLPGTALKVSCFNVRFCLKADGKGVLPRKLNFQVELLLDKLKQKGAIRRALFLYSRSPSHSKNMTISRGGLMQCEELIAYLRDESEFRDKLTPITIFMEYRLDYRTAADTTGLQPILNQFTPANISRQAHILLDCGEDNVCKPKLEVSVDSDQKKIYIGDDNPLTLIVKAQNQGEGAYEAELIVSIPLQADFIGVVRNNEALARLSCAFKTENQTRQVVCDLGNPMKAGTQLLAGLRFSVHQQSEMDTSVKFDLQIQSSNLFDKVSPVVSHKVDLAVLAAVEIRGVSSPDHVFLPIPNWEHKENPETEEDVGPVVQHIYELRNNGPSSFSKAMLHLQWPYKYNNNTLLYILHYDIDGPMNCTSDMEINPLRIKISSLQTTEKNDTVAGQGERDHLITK
Integrin alpha-V/beta-3, sequence (P06756 891-1048 limits assumed): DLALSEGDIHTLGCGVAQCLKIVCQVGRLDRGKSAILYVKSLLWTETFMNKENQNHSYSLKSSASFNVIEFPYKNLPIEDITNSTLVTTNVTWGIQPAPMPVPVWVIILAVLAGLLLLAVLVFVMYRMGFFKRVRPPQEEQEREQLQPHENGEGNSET
Integrin alpha-V/beta-5, sequence (P06756 31-889 limits assumed): as the sequence (P06756 31-889 limits assumed) above
Integrin alpha-V/beta-5, sequence (P06756 891-1048 limits assumed): as the sequence (P06756 891-1048 limits assumed) above
Integrin alpha-V/beta-5, sequence (P18084 24-799 limits assumed): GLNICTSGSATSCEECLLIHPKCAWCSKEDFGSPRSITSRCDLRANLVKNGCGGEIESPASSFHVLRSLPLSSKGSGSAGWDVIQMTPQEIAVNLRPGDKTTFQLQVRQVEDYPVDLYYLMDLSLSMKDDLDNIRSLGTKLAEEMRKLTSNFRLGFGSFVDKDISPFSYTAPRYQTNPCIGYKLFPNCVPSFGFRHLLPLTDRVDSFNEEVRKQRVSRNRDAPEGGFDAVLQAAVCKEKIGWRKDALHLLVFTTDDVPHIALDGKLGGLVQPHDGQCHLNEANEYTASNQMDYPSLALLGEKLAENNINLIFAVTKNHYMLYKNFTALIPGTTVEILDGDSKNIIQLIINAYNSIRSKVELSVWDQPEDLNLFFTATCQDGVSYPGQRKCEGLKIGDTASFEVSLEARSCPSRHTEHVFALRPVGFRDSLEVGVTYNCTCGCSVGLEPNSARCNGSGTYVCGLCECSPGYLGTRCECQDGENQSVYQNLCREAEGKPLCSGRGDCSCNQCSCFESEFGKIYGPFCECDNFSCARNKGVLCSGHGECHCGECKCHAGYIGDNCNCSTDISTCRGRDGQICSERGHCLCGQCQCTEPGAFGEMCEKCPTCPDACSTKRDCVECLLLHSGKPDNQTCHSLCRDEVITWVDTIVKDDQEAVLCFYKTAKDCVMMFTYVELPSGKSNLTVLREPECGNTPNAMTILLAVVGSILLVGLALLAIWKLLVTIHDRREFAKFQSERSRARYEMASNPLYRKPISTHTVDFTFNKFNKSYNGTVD

| SMILES | IC50 (Integrin alpha-V/beta-3) | IC50 (Integrin alpha-V/beta-5) | IC50 [1] | IC50 (Integrin alpha-5/beta-1) |
| --- | --- | --- | --- | --- |
| CCCCS(=O)(=O)NC(CNC(=O)c1cc2cc(OCCON=C(N)N)ccc2[nH]1)C(=O)O (stereo not given) | 10.5 nM |  |  |  |
| N=C(N)NOCCOc1ccc2[nH]c(C(=O)NCC(NCc3ccccc3)C(=O)O)cc2c1 (stereo not given) | > 20000 nM |  |  |  |
| NC(N)=NOCCOc1ccc2[nH]c(C(=O)NCC(N)C(=O)O)cc2c1 (stereo not given) | > 20000 nM |  |  |  |
| Cc1ccc(S(=O)(=O)NC(CNC(=O)c2cc3cc(OCCO/N=C(\N)NC(=O)OC(C)(C)C)ccc3[nH]2)C(=O)O)cc1 (stereo not given) | 130 nM |  |  |  |
| N=C(N)NOCCOc1ccc2[nH]c(C(=O)NCC(NC(=O)c3ccccc3)C(=O)O)cc2c1 (stereo not given) | 310 nM |  |  |  |
| Cc1ccc(S(=O)(=O)NC(CNC(=O)c2cc3cc(OCCON=C(N)N)ccc3[nH]2)C(=O)O)cc1 (stereo not given) | 9 nM |  |  |  |
| N=C(N)NOCCOc1ccc2[nH]c(C(=O)NCC(NS(=O)(=O)c3ccccc3)C(=O)O)cc2c1 (stereo not given) | 3.4 nM | 1000 nM | 13 nM |  |
| N=C(N)NOCCOc1ccc2[nH]c(C(=O)NCC(NC(=O)OCc3ccccc3)C(=O)O)cc2c1 (stereo not given) | 7.2 nM |  |  |  |
| O=C(NCC(NS(=O)(=O)c1ccccc1)C(=O)O)c1cc2cc(OCCONC3=NCCN3)ccc2[nH]1 (stereo not given) | 100 nM | > 20000 nM | 170 nM | > 20000 nM |
| CC1(C)C2CCC1(S(=O)(=O)NC(CNC(=O)c1cc3cc(OCCONC(=N)N)ccc3[nH]1)C(=O)O)CC2 (stereo not given) | 0.4 nM |  |  |  |
| O=C(NCc1ccccc1)NOCCOc1ccc2[nH]c(C(=O)NCC(NC(=O)OCc3ccccc3)C(=O)O)cc2c1 (stereo not given) | > 20000 nM |  |  |  |
| N=C(N)NOCCOc1ccc2[nH]c(C(=O)NC(CC(=O)O)c3cc(Cl)cc(Cl)c3)cc2c1 (stereo not given) | > 20 nM |  |  |  |
| N=C(N)NOCCOc1ccc2[nH]c(C(=O)NCC(NS(=O)(=O)c3cc(Cl)cc(Cl)c3)C(=O)O)cc2c1 (stereo not given) | 6.1 nM |  | 25 nM | > 1000 nM |
